Experimental data published in US10010520B2, “Combined application of isothiocyanate compound and anti-cancer medicine” (JC (WUXI) COMPANY, INC., priority 2013, dated 2018).
Several values for one entry are separate records, joined by “and”; a condition that tells them apart may be missing. Equal entries are not always repeated. Where two headings read alike, the source gives them in different places.

How the values were obtained:
[1] = system: human gastric cancer AGS cells; assay: CellTiter-Glo cell viability, drugs alone or in combination, AGS cells
[2] = system: Human breast cancer MDA-MB-231 cells; assay: CellTiter-Glo cell viability, drugs alone or in combination, MDA-MB-231 cells
[3] = system: Saos-2 cells; assay: CellTiter-Glo cell viability, drugs alone or in combination, Saos-2 cells; format: cell-based, human
Method: (§1) isothiocyanates or derivatives thereof and DNA-effecting or influencing anticancer drugs, kinase-inhibiting anticancer drugs or hormonal anticancer drugs for endocrine therapy were administered separately or in combination to cancer cells. Cells were seeded into 384-well plates, and cultured for 24 hours in a CO2 incubator. Drugs were dissolved in DMSO and diluted to 9 concentration-gradients in 96 well plates, and then added to corresponding cells in 384-well plates, in which the concentrations of DMSO in 384 well plates were less than 1%. Triplicate wells were set for each concentration. After administration, the cells were cultured in the CO2 incubator for another 72 hrs, and afterwards, cell viability was tested by using CellTiter-Glo® reagent and luminescence detector. And IC50 values of each administration group were calculated.
(§2) CI value was calculated by the following formula: CI=(Am)50/(As)50+(Bm)50/(Bs)50,
(§3) Triplicate wells were set for each co-administration cell well.
(§4) After administration, cells were cultured in the CO2 incubator for another 72 hrs, and afterwards, cell viability was tested by using CellTiter-Glo® reagent and luminescence detector. Curves were plotted according to concentrations or logarithm concentrations of drug A vs cell inhibition rate in the corresponding cell well, and IC50, i.e. (Am)50 was calculated.
(§5) 9 concentration gradients of drug A were set (A1, A2, A3, A4, A5, A6, A7, A8, A9), and administrated alone to the corresponding cells in the 384 well plate, and triplicate wells were set for each administration concentration. After administration, the cells were cultured in the CO2 incubator for another 72 hrs, and afterwards, cell viability was tested by using CellTiter-Glo® reagent and luminescence detector. Curves were plotted according to concentration or logarithm concentration of drug A vs the cell inhibition rate in the corresponding cell well, and IC50, i.e. (As)50 was calculated.
(§6) After administration, the cells were cultured in the CO2 incubator for another 72 hrs, and afterwards, cell viability was tested by using CellTiter-Glo® reagent and luminescence detector.

[4] = system: human kidney cancer cells 786-O; assay: CellTiter-Glo cell viability, drugs alone or in combination, 786-O cells; details: 786-0, 72 h
[5] = system: pancreatic cancer cells PANC-1; assay: CellTiter-Glo cell viability, drugs alone or in combination, PANC-1 cells; format: cell-based, human; details: PANC-1 cells, 72 hrs
Method: as §1, §2, §3, §4, §5, §6

[6] = system: human leukemia HL-60 cells; assay: CellTiter-Glo cell viability, drugs alone or in combination, HL-60 cells; format: cell-based; details: read-out: (As)50, IC50 of drug A when used alone
Method: as §1, §2, §3, §4, §5, §6

[7] = system: LNCaP cells; assay: CellTiter-Glo cell viability, drugs alone or in combination, LNCaP cells; format: cell-based, human; details: LNCaP cells, 72 hrs
Method: (§7) Cell culture: Androgen-dependent human prostate cancer cells LNCaP, from Shanghai Medicilon Ltd., were placed in a 37° C., 5% CO2 cell incubator, and were cultured in RPMI1640 culture medium with 10% FBS. Androgen-independent human prostate cancer cells DU145, PC-3, from Shanghai Medicilon Ltd., were placed in a 37° C., 5% CO2 cell incubator, and were cultured in F12 culture medium with 10% FBS.
as §1, §2, §3, §4, §5, §6

[8] = system: HeLa cells; assay: CellTiter-Glo cell viability, drugs alone or in combination, HeLa cells; format: cell-based, human
Method: as §1, §2, §3, §4, §5, §6

[9] = system: HT29 cells; assay: CellTiter-Glo cell viability, drugs alone or in combination, HT29 cells; details: Homo sapiens, HT-29, 72 h
[10] = system: OVCAR-3 cells; assay: CellTiter-Glo cell viability, drugs alone or in combination, OVCAR-3 cells
[11] = system: U251 cells; assay: CellTiter-Glo cell viability, drugs alone or in combination, U251 cells; details: Homo sapiens, U-251, 72 h
[12] = system: Jurkat E6-1 cells; assay: CellTiter-Glo cell viability, drugs alone or in combination, Jurkat E6-1 cells; format: cell-based, human; details: Jurkat E6-1 cells, 72 hrs, read-out: (As)50, IC50 of drug A when used alone
Method: as §1, §2, §3, §4, §5, §6

[13] = system: DU145 cells; assay: CellTiter-Glo cell viability, drugs alone or in combination, DU145 cells; format: cell-based, human
Method: as §7, §1, §2, §3, §4, §5, §6

[14] = system: PC-3 cells; assay: CellTiter-Glo cell viability, drugs alone or in combination, PC-3 cells; format: cell-based; details: Homo sapiens, 72 hrs
Method: as §7
isothiocyanates or derivatives thereof and DNA-effecting or influencing anticancer drugs, kinase-inhibiting anticancer drugs or hormonal anticancer drugs for endocrine therapy were administered separately or in combination to cancer cells. […] After administration, the cells were cultured in the CO2 incubator for another 72 hrs, and afterwards, cell viability was tested by using CellTiter-Glo® reagent and luminescence detector. And IC50 values of each administration group were calculated.
CI value was calculated by the following formula: CI=(Am)50/(As)50+(Bm)50/(Bs)50, […]
(§8) After administration, cells were cultured in the CO2 incubator for another 72 hrs, and afterwards, cell viability was tested by using CellTiter-Glo® reagent and luminescence detector. Curves were plotted according to concentrations or logarithm concentrations of drug A vs cell inhibition rate in the corresponding cell well, and IC50, i.e. (Am)50 was calculated. […]

[15] = system: A549 cells; assay: CellTiter-Glo cell viability, drugs alone or in combination, A549 cells; format: cell-based, human
Method: as §1, §2, §3, §4, §5, §6

[16] = system: SK-MEL-28 cells; assay: CellTiter-Glo cell viability, drugs alone or in combination, SK-MEL-28 cells; format: cell-based; details: Homo sapiens, 72 hrs
Method: as §1, §2, §3, §8

[17] = Homo sapiens, AGS, 72 h, read-out: (Bs)50, IC50 of drug B when used alone, AGS cells
[18] = Homo sapiens, SAOS-2, 72 h, Saos-2 cells, 72 hrs, read-out: (As)50, IC50 of drug A when used alone
[19] = read-out: (As)50, IC50 of drug A when used alone, 786-O cells, 72 hrs
[20] = Homo sapiens, PANC-1, 72 h, read-out: (As)50, IC50 of drug A when used alone
[21] = Homo sapiens, LNCaP, 72 h, read-out: (As)50, IC50 of drug A when used alone
[22] = Homo sapiens, MDA-MB-231, 72 h, read-out: (As)50, IC50 of drug A when used alone, MDA-MB-231 cells, 72 hrs
[23] = Homo sapiens, HeLa, 72 h, read-out: (As)50, IC50 of drug A when used alone
[24] = read-out: (Bs)50, IC50 of drug B when used alone
[25] = Homo sapiens, OVCAR-3, 72 h, read-out: (Bs)50, IC50 of drug B when used alone, OVCAR-3 cells, 72 hrs
[26] = read-out: (As)50, IC50 of drug A when used alone
[27] = Homo sapiens, DU-145, 72 h, read-out: (Bs)50, IC50 of drug B when used alone
[28] = Homo sapiens, LNCaP, 72 h, read-out: (Bs)50, IC50 of drug B when used alone
[29] = 72 hrs, read-out: (Bs)50, IC50 of drug B when used alone
[30] = Homo sapiens, A549, 72 h, read-out: (Bs)50, IC50 of drug B when used alone
[31] = 72 hrs, read-out: (As)50, IC50 of drug A when used alone

Compound: CC(=O)O[C@@]12CO[C@@H]1C[C@H](O)[C@@]1(C)C(=O)[C@H](O)C3=C(C)[C@@H](OC(=O)[C@H](O)[C@@H](NC(=O)OC(C)(C)C)c4ccccc4)C[C@@](O)([C@@H](OC(=O)c4ccccc4)[C@H]21)C3(C)C [docetaxel, reference compound]
- IC50 [1, 17]: 0.00974 µM
- IC50 ([2]; read-out: (Bs)50, IC50 of drug B when used alone, MDA-MB-231 cells, 72 hrs): 0.391 µM

Compound: S=C=NCc1ccccc1 [Benzyl isothiocyanate, benzyl isothiocyanate]
- IC50 [3, 18]: 14.5 µM
- IC50 [4, 19]: 13.2 µM
- IC50 [5, 20]: 23.4 µM
- IC50 ([6]; Homo sapiens, HL-60, 72 h): 11.5 µM
- IC50 [7, 21]: 18.5 µM
- IC50 [2, 22]: 11.4 µM
- IC50 [8, 23]: 14.7 µM

Compound: Nc1nc2c(c(=O)[nH]1)N(C=O)C(CNc1ccc(C(=O)N[C@@H](CCC(=O)O)C(=O)O)cc1)CN2 (stereo partly shown) [Leucovorin, reference compound]
- IC50 [9, 24]: > 100 µM

Compound: COc1cccc2c1C(=O)c1c(O)c3c(c(O)c1C2=O)C[C@@](O)(C(=O)CO)C[C@@H]3O[C@H]1C[C@H](N)[C@H](O)[C@H](C)O1 [adriamycin, reference compound]
- IC50 ([3]; Homo sapiens, SAOS-2, 72 h, Saos-2 cells, 72 hrs, read-out: (Bs)50, IC50 of drug B when used alone): 0.899 µM
- IC50 ([3]; Saos-2 cells, 72 hrs, read-out: (Bs)50, IC50 of drug B when used alone): 0.574 µM
- IC50 [10, 25]: 1.74 µM
- IC50 [1, 17]: 0.0534 µM

Compound: S=C=NC1CCCCC1 [cyclohexyl isothiocyanate]
- IC50 ([3]; Homo sapiens, SAOS-2, 72 h, read-out: (As)50, IC50 of drug A when used alone): 66 µM
- IC50 [4, 26]: 107 µM
- IC50 ([5]; Homo sapiens, read-out: (As)50, IC50 of drug A when used alone): 193 µM
- IC50 ([6]; Homo sapiens, HL-60, 72 h): 52.7 µM
- IC50 [7, 21]: 54 µM
- IC50 ([10]; Homo sapiens, OVCAR-3, 72 h, read-out: (As)50, IC50 of drug A when used alone): 36.5 µM
- IC50 ([2]; Homo sapiens, MDA-MB-231, 72 h, read-out: (As)50, IC50 of drug A when used alone): 37.5 µM
- IC50 [11, 26]: 71.1 µM
- IC50 ([12]; Homo sapiens): 42.1 µM

Compound: C[C@]12CC[C@H](O)CC1=CC[C@@H]1[C@@H]2CC[C@]2(C)C(c3cccnc3)=CC[C@@H]12 [Abiraterone, abiraterone, reference compound]
- IC50 [13, 27]: 37.4 µM
- IC50 [7, 28]: 21.2 µM
- IC50 [14, 24]: 101 µM

Compound: CO[C@H]1C(=O)[C@]2(C)[C@@H](OC)C[C@H]3OC[C@@]3(OC(C)=O)[C@H]2[C@H](OC(=O)c2ccccc2)[C@]2(O)C[C@H](OC(=O)[C@H](O)[C@@H](NC(=O)OC(C)(C)C)c3ccccc3)C(C)=C1C2(C)C [Cabazitaxel]
- IC50 [13, 27]: 0.0265 µM

Compound: Bleomycin [reference compound]
- IC50 [8, 29]: 24.5 µM

Compound: CN(Cc1cnc2nc(N)nc(N)c2n1)c1ccc(C(=O)N[C@@H](CCC(=O)O)C(=O)O)cc1 [methotrexate, reference compound]
- IC50 [15, 30]: 0.08 µM

Compound: N.N.[Cl][Pt][Cl] [cisplatin, Cisplatin, reference compound]
- IC50 ([10]; read-out: (Bs)50, IC50 of drug B when used alone, OVCAR-3 cells, 72 hrs): 20.6 µM
- IC50 [8, 29]: 32.8 µM

Compound: S=C=NCCc1ccccc1 [Phenethyl isothiocyanate]
- IC50 [3, 18]: 20.5 µM
- IC50 [4, 19]: 16 µM
- IC50 [13, 31]: 19.4 µM
- IC50 [5, 20]: 19.6 µM
- IC50 ([6]; 72 hrs): 6.66 µM
- IC50 ([6]; Homo sapiens, HL-60, 72 h): 6.27 µM
- IC50 [7, 21]: 20.4 µM
- IC50 [16, 26]: 32.7 µM
- IC50 ([10]; read-out: (As)50, IC50 of drug A when used alone, OVCAR-3 cells, 72 hrs): 31.8 µM and 9.87 µM
- IC50 ([1]; Homo sapiens, AGS, 72 h, read-out: (As)50, IC50 of drug A when used alone, AGS cells): 14.7 µM
- IC50 ([1]; read-out: (As)50, IC50 of drug A when used alone, AGS cells, 72 hrs): 11.8 µM
- IC50 [2, 22]: 25.1 µM
- IC50 [15, 31]: 22.3 µM
- IC50 ([15]; Homo sapiens, A549, 72 h, read-out: (As)50, IC50 of drug A when used alone): 22 µM
- IC50 [9, 26]: 29.2 µM
- IC50 ([11]; read-out: (As)50, IC50 of drug A when used alone, U251 cells, 72 hrs): 20.9 µM
- IC50 ([12]; Homo sapiens, Jurkat E6.1, 72 h): 12.1 µM
- IC50 [12]: 11.6 µM and 12.1 µM and 11.5 µM
- IC50 [14, 26]: 52.6 µM
- IC50 [8, 23]: 16.1 µM

Compound: CCCS(=O)(=O)Nc1ccc(F)c(C(=O)c2c[nH]c3ncc(-c4ccc(Cl)cc4)cc23)c1F [Vemurafenib, reference compound]
- IC50 [16, 24]: 1.2 µM

Compound: Nc1ccn([C@@H]2O[C@H](CO)[C@@H](O)C2(F)F)c(=O)n1 [gemcitabine, Gemcitabine, reference compound]
- IC50 [5, 24]: 32.4 µM
- IC50 [10, 25]: 89.7 µM
- IC50 [15, 30]: 9.54 µM

Compound: CC(O)(CS(=O)(=O)c1ccc(F)cc1)C(=O)Nc1ccc(C#N)c(C(F)(F)F)c1 (stereo not shown) [Bicalutamide, bicalutamide, reference compound]
- IC50 [13, 27]: 130 µM
- IC50 [7, 28]: 72.5 µM
- IC50 [7, 24]: 70 µM
